Experiments:
[1] = target: Amyloid-beta precursor protein (Homo sapiens) (UniProt P05067); assay: Inhibition of HFIP-pretreated amyloid beta (1 to 42) (unknown origin) aggregation at 10 uM after 36 to 48 hrs by thioflavin-T fluorescence assay relative to control; conditions: time 36-48 hrs
[2] = target: Acetylcholinesterase (Electrophorus electricus) (UniProt O42275); assay: Inhibition of electric eel AChE at 10 uM using acetylthiocholine as substrate preincubated for 5 mins followed by substrate addition and measured after 5 mins by Ellman's method relative to control; conditions: time 10.0 min
Chain of Acetylcholinesterase (Electrophorus electricus) (O42275 24-633 limits assumed): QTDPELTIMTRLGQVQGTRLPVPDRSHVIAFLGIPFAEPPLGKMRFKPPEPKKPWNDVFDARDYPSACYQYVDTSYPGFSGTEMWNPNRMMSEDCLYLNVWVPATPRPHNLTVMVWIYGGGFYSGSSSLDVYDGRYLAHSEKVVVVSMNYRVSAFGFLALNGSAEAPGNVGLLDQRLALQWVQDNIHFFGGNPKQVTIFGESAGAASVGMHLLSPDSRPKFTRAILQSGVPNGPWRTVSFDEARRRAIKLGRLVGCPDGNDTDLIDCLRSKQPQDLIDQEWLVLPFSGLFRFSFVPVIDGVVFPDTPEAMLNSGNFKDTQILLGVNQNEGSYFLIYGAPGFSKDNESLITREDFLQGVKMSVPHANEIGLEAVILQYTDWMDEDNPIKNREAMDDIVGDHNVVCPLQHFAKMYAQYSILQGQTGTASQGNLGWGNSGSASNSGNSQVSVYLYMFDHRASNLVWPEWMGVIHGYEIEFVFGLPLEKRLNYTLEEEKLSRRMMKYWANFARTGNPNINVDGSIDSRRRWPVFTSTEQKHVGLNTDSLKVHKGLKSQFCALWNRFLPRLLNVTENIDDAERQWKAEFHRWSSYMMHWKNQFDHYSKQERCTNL

Beta-secretase 1 [3] = target: T1, Beta-secretase 1 (Homo sapiens, UniProt P56817); conditions: dose 50.0 µM, time 60.0 min
T1 sequence (P56817 whole entry): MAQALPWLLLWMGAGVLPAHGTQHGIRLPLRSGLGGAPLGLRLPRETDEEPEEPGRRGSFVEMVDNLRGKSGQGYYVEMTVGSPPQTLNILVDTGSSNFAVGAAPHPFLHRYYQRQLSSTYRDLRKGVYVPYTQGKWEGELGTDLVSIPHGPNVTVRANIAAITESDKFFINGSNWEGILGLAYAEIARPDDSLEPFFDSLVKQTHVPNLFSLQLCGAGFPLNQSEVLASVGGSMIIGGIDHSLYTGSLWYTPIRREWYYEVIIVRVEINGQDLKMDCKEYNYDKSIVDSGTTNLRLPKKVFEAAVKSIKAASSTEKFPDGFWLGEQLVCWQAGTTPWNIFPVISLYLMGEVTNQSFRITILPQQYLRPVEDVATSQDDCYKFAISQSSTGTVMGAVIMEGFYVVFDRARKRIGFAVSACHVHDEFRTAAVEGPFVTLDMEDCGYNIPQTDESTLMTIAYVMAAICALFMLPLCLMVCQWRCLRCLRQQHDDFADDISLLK

Cholinesterase [4] = target: Cholinesterase (Equus caballus, UniProt P81908)
Chain of Cholinesterase (Equus caballus, UniProt P81908) (P81908 whole entry): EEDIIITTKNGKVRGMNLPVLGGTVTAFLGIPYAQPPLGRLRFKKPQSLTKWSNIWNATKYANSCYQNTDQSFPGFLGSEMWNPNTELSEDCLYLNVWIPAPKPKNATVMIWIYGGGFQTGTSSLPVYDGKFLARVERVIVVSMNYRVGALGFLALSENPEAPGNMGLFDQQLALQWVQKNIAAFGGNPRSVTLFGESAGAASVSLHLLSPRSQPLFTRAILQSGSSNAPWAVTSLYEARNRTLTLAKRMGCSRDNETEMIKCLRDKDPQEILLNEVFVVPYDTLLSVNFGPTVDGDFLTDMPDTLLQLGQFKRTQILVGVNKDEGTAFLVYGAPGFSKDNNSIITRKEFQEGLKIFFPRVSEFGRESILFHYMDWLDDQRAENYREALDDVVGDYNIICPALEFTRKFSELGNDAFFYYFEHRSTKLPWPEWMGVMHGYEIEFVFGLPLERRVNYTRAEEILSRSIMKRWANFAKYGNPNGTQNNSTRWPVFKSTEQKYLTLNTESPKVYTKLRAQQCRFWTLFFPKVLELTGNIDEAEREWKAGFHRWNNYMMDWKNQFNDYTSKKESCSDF
Description: Inhibition of equine serum BuChE using butyrylthiocholine as substrate preincubated for 5 mins followed by substrate addition and measured after 5 mins by Ellman's method

Cholinesterase [5] = target: T2, Cholinesterase (Homo sapiens, UniProt P06276)
T2 sequence (P06276 whole entry): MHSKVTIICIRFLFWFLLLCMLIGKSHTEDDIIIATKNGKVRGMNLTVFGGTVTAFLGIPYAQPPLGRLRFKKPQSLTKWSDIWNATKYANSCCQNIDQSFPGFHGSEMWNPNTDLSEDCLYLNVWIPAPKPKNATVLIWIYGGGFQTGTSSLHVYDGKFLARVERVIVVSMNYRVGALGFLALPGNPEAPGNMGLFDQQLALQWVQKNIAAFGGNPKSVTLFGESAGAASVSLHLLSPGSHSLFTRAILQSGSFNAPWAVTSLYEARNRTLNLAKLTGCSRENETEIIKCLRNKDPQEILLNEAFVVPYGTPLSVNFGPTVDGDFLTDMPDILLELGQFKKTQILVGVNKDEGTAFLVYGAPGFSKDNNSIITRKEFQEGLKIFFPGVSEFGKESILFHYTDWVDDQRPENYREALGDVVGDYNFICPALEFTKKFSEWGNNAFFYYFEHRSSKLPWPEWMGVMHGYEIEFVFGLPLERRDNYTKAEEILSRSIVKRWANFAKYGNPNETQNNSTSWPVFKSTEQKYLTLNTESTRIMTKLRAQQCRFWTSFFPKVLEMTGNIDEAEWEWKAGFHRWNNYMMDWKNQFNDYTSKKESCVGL
Description: Inhibition of human BuchE using butyrylthiocholine as substrate preincubated for 5 mins followed by substrate addition and measured after 5 mins by Ellman's method

Cholinesterase [6] = target: T2, Cholinesterase; assay: Inhibition of human BuchE at 1 uM using butyrylthiocholine as substrate preincubated for 5 mins followed by substrate addition and measured after 5 mins by Ellman's method relative to control; conditions: time 10.0 min
Beta-secretase 1 [7] = target: T1, Beta-secretase 1
[8] = target: Sodium- and chloride-dependent GABA transporter 1 (Mus musculus, UniProt P31648); assay: Inhibition of mouse GAT1 expressed in HEK293 cell line assessed as reduction in [3H]GABA uptake incubated for 10 mins; assay type: cell-based
[9] = target: T3, GABA transporter 4 (Mus musculus) (UniProt P31650); assay: Inhibition of mouse GAT3 expressed in HEK293 cell line assessed as reduction in [3H]GABA uptake at 100 uM incubated for 10 mins relative to control; assay type: cell-based
T3 sequence (whole entry): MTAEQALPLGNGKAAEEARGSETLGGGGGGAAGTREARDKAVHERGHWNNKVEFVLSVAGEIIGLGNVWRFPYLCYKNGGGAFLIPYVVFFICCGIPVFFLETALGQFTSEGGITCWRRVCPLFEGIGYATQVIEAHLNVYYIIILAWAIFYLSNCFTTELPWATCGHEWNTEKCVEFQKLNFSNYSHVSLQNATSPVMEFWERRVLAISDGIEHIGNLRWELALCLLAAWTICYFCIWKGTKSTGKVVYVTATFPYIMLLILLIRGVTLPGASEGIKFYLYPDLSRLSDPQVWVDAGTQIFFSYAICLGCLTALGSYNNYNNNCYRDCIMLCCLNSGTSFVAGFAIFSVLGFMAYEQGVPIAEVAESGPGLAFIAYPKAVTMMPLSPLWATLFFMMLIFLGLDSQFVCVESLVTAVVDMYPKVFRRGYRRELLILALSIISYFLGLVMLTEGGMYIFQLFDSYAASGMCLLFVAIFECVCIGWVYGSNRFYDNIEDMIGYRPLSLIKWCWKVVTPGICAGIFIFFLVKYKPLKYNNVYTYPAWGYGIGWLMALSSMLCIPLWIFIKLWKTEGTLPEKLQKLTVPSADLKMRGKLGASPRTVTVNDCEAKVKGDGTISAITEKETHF

GABA transporter 4 = target: T4, GABA transporter 4 (Mus musculus, UniProt P31650); assay: Inhibition of mouse GAT4 expressed in HEK293 cell line assessed as reduction in [3H]GABA uptake incubated for 10 mins; assay type: cell-based
T4 sequence (P31650 whole entry): T3 sequence (whole entry)

[10] = target: Sodium- and chloride-dependent GABA transporter 1 (Mus musculus) (UniProt P31648); assay: Inhibition of NO711 binding to mouse GAT1 expressed in HEK cell membranes at 100 uM incubated for 40 mins in presence of NO711 by LC-ESI-MS/MS analysis relative to control; conditions: Membrane
[11] = target: Sodium- and chloride-dependent GABA transporter 1 (Mus musculus) (UniProt P31648); assay: Inhibition of mouse GAT1 expressed in HEK293 cell line assessed as reduction in [3H]GABA uptake at 100 uM incubated for 10 mins relative to control; assay type: cell-based
[12] = target: T5, GABA transporter 3 (Mus musculus) (UniProt P31649); assay: Inhibition of mouse GAT2 expressed in HEK293 cell line assessed as reduction in [3H]GABA uptake at 100 uM incubated for 10 mins relative to control; assay type: cell-based
T5 sequence (whole entry): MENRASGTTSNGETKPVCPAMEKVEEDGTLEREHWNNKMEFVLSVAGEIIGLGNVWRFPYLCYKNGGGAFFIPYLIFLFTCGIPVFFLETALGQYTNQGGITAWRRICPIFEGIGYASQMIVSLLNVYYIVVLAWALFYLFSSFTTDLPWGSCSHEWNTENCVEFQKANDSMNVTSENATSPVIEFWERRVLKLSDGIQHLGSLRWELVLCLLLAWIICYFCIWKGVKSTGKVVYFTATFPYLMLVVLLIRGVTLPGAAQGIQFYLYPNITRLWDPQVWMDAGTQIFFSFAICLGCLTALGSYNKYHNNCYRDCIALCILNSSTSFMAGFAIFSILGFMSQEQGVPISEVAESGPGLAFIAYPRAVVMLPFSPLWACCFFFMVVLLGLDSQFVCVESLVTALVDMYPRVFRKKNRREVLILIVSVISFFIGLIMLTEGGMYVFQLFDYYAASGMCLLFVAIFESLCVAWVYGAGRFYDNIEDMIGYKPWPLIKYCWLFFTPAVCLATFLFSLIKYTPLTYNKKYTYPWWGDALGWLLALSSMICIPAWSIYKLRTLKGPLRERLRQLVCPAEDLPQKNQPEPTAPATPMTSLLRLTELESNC

Chain of Amyloid-beta precursor protein (Homo sapiens) (P05067 whole entry): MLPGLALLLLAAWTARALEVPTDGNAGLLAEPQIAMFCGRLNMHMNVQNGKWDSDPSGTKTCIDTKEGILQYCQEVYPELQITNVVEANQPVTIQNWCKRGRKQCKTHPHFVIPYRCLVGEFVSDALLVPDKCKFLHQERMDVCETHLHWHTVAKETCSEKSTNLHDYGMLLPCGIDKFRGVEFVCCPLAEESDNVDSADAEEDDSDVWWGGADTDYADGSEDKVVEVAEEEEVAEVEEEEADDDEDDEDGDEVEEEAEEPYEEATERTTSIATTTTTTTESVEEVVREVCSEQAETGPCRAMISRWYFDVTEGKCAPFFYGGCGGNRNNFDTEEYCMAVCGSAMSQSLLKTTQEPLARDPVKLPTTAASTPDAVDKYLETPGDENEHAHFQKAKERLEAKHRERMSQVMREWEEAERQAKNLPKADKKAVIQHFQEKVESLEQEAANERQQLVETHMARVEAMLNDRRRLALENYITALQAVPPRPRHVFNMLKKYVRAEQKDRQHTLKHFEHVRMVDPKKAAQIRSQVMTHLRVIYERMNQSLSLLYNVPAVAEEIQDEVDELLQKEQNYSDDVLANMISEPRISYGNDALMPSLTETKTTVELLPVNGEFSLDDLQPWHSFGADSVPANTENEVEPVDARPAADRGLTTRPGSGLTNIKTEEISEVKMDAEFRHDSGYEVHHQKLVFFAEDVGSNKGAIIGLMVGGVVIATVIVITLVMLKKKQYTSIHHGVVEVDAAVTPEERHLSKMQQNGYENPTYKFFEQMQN

Row | SMILES | inhibition [1] [%] | inhibition [2] [%] | inhibition (Beta-secretase 1 [3]) [%] | IC50 (Cholinesterase [4]) [nM] | IC50 (Cholinesterase [5]) [nM] | inhibition (Cholinesterase [6]) [%] | IC50 (Beta-secretase 1 [7]) [nM] | IC50 [8] [nM] | inhibition [9] [%] | IC50 (GABA transporter 4) [nM] | inhibition [10] [%] | inhibition [11] [%] | inhibition [12] [%]
1 | C[C@H](NC[C@@H](O)[C@H](Cc1ccccc1)NCC(c1ccccc1)c1ccccc1)c1ccccc1 | 34.7 | < 10 | 53.9 | 950 | 920 | – | – | – | – | – | – | – | –
2 | CC(C)(C)NC[C@H](O)[C@H](Cc1ccccc1)NC(=O)CC(c1ccccc1)c1ccccc1 | 20.5 | < 10 | < 10 | 11800 | – | < 10 | – | – | – | – | – | – | –
3 | CC(C)(C)c1cccc(CNCC(O)CNCCC(c2ccccc2)c2ccccc2)c1 (configuration not stated) | – | 21.8 | – | 2920 | 5740 | – | 41600 | – | – | – | – | – | –
4 | O[C@H](CNCc1ccccc1)[C@H](Cc1ccccc1)NCCC(c1ccccc1)c1ccccc1 | 34.7 | < 10 | 55.3 | 1540 | – | 71.7 | – | – | – | – | – | – | –
5 | COc1ccccc1CNC[C@H](O)[C@H](Cc1ccccc1)NC(=O)C(c1ccccc1)c1ccccc1 | 20.5 | < 10 | 66.2 | 110 | 540 | – | – | 87100 | 69 | 20000 | 80 | – | –
6 | CC(C)(C)NC[C@H](O)[C@H](Cc1ccccc1)NCCC(c1ccccc1)c1ccccc1 | 34.7 | < 10 | 51.3 | 190 | – | 68.5 | – | – | – | – | – | – | –
7 | O=C(N[C@@H](Cc1ccccc1)[C@@H](O)CNCc1cccc(C(F)(F)F)c1)C(c1ccccc1)c1ccccc1 | – | < 10 | – | 390 | 670 | – | 8600 | – | – | – | – | – | –
8 | O[C@H](CNCc1ccccc1)[C@H](Cc1ccccc1)NCC(c1ccccc1)c1ccccc1 | – | < 10 | 42 | 950 | 320 | – | – | – | – | – | – | – | –
9 | C[C@H](NC[C@@H](O)[C@H](Cc1ccccc1)NCCC(c1ccccc1)c1ccccc1)c1ccccc1 | 34.7 | < 10 | 62 | 980 | – | 72.5 | – | – | – | – | – | – | –
10 | CC(C)(NC[C@@H](O)[C@H](Cc1ccccc1)NCCC(c1ccccc1)c1ccccc1)c1ccccc1 | 34.7 | < 10 | 71.8 | 1600 | – | 53.2 | – | – | – | – | – | – | –
11 | CC(C)(C)c1cccc(CNC[C@@H](O)[C@H](Cc2ccccc2)NC(=O)CC(c2ccccc2)c2ccccc2)c1 | 20.5 | < 10 | – | 450 | – | 77.3 | 6000 | – | – | – | – | – | –
12 | O=C(N[C@@H](Cc1ccccc1)[C@@H](O)CNCc1ccccc1)C(c1ccccc1)c1ccccc1 | – | < 10 | 66.1 | 230 | – | 40.5 | – | 34700 | 52 | 26900 | 74 | – | –
13 | COc1cccc(CNC[C@@H](O)[C@H](Cc2ccccc2)NC(=O)CC(c2ccccc2)c2ccccc2)c1 | 20.5 | < 10 | 49 | 1280 | 440 | – | – | – | 92 | 5890 | 65 | 67 | –
14 | CC(C)(C)CNC[C@@H](O)[C@H](Cc1ccccc1)NC(=O)CC(c1ccccc1)c1ccccc1 | – | < 10 | – | 2770 | – | 46.2 | 33600 | – | – | – | – | – | –
15 | CC(C)c1cccc(CNC[C@H](O)[C@H](Cc2ccccc2)NC(=O)C(c2ccccc2)c2ccccc2)c1 | – | < 10 | – | 200 | – | 74.9 | 3400 | – | – | – | – | – | –
16 | CC(C)(C)NC[C@H](O)[C@H](Cc1ccccc1)NC(=O)C(c1ccccc1)c1ccccc1 | 20.5 | < 10 | < 10 | 840 | – | 35.5 | – | – | – | – | – | – | –
17 | COc1ccccc1CNC[C@H](O)[C@H](Cc1ccccc1)NC(=O)CC(c1ccccc1)c1ccccc1 | 20.5 | < 10 | – | 330 | 350 | – | 23400 | – | – | – | – | – | –
18 | O=C(CC(c1ccccc1)c1ccccc1)N[C@@H](Cc1ccccc1)[C@H](O)CNCc1ccccc1 | 20.5 | < 10 | – | – | – | 62.3 | 35400 | – | – | – | – | – | –
19 | COc1ccccc1CNC[C@H](O)[C@H](Cc1ccccc1)NCCC(c1ccccc1)c1ccccc1 | 34.7 | < 10 | 65.5 | 1010 | 800 | – | – | – | – | – | – | – | –
20 | COc1cccc(CNC[C@@H](O)[C@H](Cc2ccccc2)NC(=O)C(c2ccccc2)c2ccccc2)c1 | 20.5 | < 10 | 37 | 1550 | – | 56.5 | – | – | 67 | 33100 | 85 | 61 | 61
21 | O=C(CC(c1ccccc1)c1ccccc1)N[C@@H](Cc1ccccc1)[C@@H](O)CNCc1ccccc1 | 20.5 | < 10 | – | – | – | 67.7 | 17400 | – | 76 | – | 83 | 61 | 74
22 | O=C(N[C@@H](Cc1ccccc1)[C@H](O)CNCC1CC1)C(c1ccccc1)c1ccccc1 | 20.5 | < 10 | 44.4 | 3210 | – | 12.3 | – | – | 54 | 74100 | 74 | 51 | 85
23 | COc1ccccc1CNC[C@H](O)[C@H](Cc1ccccc1)NCC(c1ccccc1)c1ccccc1 | 81.4 | < 10 | 55.2 | 320 | 580 | – | – | – | – | – | – | – | –
24 | CC(C)(NC[C@@H](O)[C@H](Cc1ccccc1)NC(=O)CC(c1ccccc1)c1ccccc1)c1ccccc1 | 20.5 | < 10 | – | 3230 | – | 13.3 | 8900 | – | – | – | – | – | –
25 | CC(C)(C)c1ccc(CNC[C@H](O)[C@H](Cc2ccccc2)NC(=O)C(c2ccccc2)c2ccccc2)cc1 | 20.5 | < 10 | – | 3440 | 200 | – | 2100 | – | – | – | – | – | –
26 | CC(C)c1cccc(CNC[C@@H](O)[C@H](Cc2ccccc2)NCCC(c2ccccc2)c2ccccc2)c1 | 34.7 | 25.9 | – | 1840 | – | 67.4 | 6600 | – | – | – | – | – | –
27 | O=C(N[C@@H](Cc1ccccc1)[C@H](O)CNCc1ccccc1)C(c1ccccc1)c1ccccc1 | – | < 10 | 56.2 | 1510 | – | 34.1 | – | – | – | – | – | – | –
28 | COc1cccc(CNC[C@@H](O)[C@H](Cc2ccccc2)NCCC(c2ccccc2)c2ccccc2)c1 | 34.7 | < 10 | 50.6 | 2040 | – | 55.4 | – | – | – | – | – | – | –
